Measurements taken from PMC12124432, “Antimicrobial Peptide‐Peptoid Macrocycles from the Polymyxin B2 Chemical Space” (Angewandte Chemie (International Ed. in English), 2025).
Bridge positions count the residues as written; N and C are the ends. Square brackets hold non-standard residues; d marks the D form. Peptide text beside a SMILES is read from it. * marks the point of attachment. N(3-phenylpropyl)Gly = O=C(O)CNCCCc1ccccc1; Gly(NCH2CH2Ph) = O=C(O)CNCCc1ccccc1; Gly(N-2-aminoethyl) = NCCNCC(=O)O; Gly(N(CH2)3NH2) = NCCCNCC(=O)O; Gly(N-cPent) = O=C(O)CNC1CCCC1; Heptanoyl = CCCCCCC(=O)*; Nphe = O=C(O)CNCc1ccccc1; Octanoyl = CCCCCCCC(=O)*; Dab = NCC[C@H](N)C(=O)O; NPrGly = CCCNCC(=O)O

Experiments:
[1] = Lipid vesicle (carboxyfluorescein) leakage assay; details: 10 µg mL^−1 compound, 10 mM Tris, 107 mM NaCl, pH 7.4, leakage observed after 220 s
Method: Figure S4. Cytotoxicity of selected compounds against HK-2 cells. The cells were treated with the compound at the desired concentration for 24 h and the viability was determined with an Alamar blue assay. Data of three experiments performed in triplicates were pooled and represented as barplots.
10. Lipid Vesicle Leakage Assay
5(6)-carboxyfluorescein (CF) was purchased from Sigma Aldrich. Egg Yolk Phosphatidylcholine (EYPC), Egg Yolk Phosphatidylglycerol (EYPG) and a Mini-Extruder were purchased from Avanti Polar Lipids.
Vesicles preparation. Egg yolk PC or egg yolk PG thin lipid layers were prepared by evaporating a solution of 100 mg EYPC or EYPG in 4 mL MeOH/CHCl3 (1:1) on a rotary evaporator at room temperature and then dried in vacuo overnight. The resulting film was then hydrated with 2 mL CF buffer (50 mM CF, 10 mM TRIS, 10 mM NaCl, pH 7.4) for 30 min, subjected to freeze-thaw cycles (7×) and extrusion (15×) through a polycarbonate membrane (pore size 100 nm). Extra vesicular components were removed by gel filtration (Sephadex G-50) with 10 mM TRIS, 107 mM NaCl, pH 7.4 buffer. Final conditions: ca. 2.5 mM EYPC or EYPG; inside: 50 mM CF, 10 mM TRIS, 10 mM NaCl, pH 7.4 buffer; outside: 10 mM TRIS, […]
Vesicle leakage assay. EYPC or EYPG vesicle stock solutions (37.5 μL) were diluted to 3000 μL with a buffer (10 mM TRIS, 107 mM NaCl, pH 7.4) in a thermostated fluorescence cuvette (25 °C) and gently stirred (final lipid concentration ca. 10 μg/mL for both EYPG and EYPC).
The desired volume of peptide (1 or 20 mg/mL stock in MilliQ water) was added at t = 45 s to obtain final concentrations of 10 and 50 or 200 μg/mL, and CF efflux was monitored at λem 517 nm (λex 492 nm) as a function of time. Finally, 30 μL of 1.2% Triton X-100 was added to the cuvette (0.012% final concentration) at t = 240 s to reach the maximum intensity.
Fluorescence intensities were then normalized to the maximal emission intensity using I(t) = (It − I0)⁄(I∞ − I0) where I0 = It at peptide addition and I∞ = It at saturation of […]

P. aeruginosa PAO1 = experiment: DiSC3(5) inner-membrane depolarization assay; type: cell-based, Pseudomonas aeruginosa; details: 2 µM DiSC3(5), mean ± SD, n = 3
Method: Outer Membrane (NPN) - E. coli
Figure S6. Outer membrane permeability assay with 10 μM NPN, on E. coli W3110.
13. DiSC3(5) Inner-Membrane Depolarization Assay
A single colony of P. aeruginosa PAO1 and E. coli W3110 was grown overnight with shaking […]
(150 rpm) in LB broth (5 mL) at 37 °C. 100 μL of the overnight culture was regrown in 10 […]
mL LB broth with shaking (200 rpm) to the exponential phase OD600 = 1 (10^9 CFU/mL).
Bacteria were washed once with HEPES buffer (5 mM HEPES, 5 mM glucose, pH 7.4) and […]
diluted to OD600 = 0.5. Stock solution of 10 mM of 3,3′ -Dipropylthiadicarbocyanine iodide […]
(DiSC3(5), purchased from Sigma) was prepared in DMSO. Stock solutions of 2 m g/mL of […]
the compounds were prepared in sterilized milli -Q water and diluted to the beginning […]
concentration of 128 μg/mL in 200 μL HEPES buffer. The diluted samples were added to the […]
first well of 96-well plates (black wells, flat bottom, BRAND ® GmbH Wertheim, Germany) […]
and diluted serially by 1/2. […]
DiSC3(5) in HEPES buffer. The plate was measured with a Tecan instrument Infinite M1000 […]
wavelength used was 610 nm ± 5 nm and the emission wavelength 660 nm ± 5 nm. The assay was measured in triplicate and repeated at least two times.[10,11] […]
Saturation determination. […] The fluorescence saturation of DsPMB with LPS was first determined, by titration (0.25 μM increments, up to 5 μM) of the DsPMB into a 3 μg/mL of LPS (10 mM Tris, 10 mM NaCl buffer, pH 7.4), at 37 °C. The fluorescence was recorded with a Jasco spectrofluorometer FP-8300, with the excitation at λex = 340 nm (5 nm slit width) and recorded from 420 to 650 nm. The fluorescence was recorded two minutes after each addition. Saturation was graphically determined, at a concentration of D sPMB ≈ 2.5 μM (λem = 485 nm). Each measurement was determined in triplicates.
Displacement assay. The displacement effect of the various peptides was determined by measuring the reduction of fluorescence intensity, at 37 °C. Initially, DsPMB (2.5 μM) was mixed with LPS (3 μg/mL) and let it react for 15 minutes before recording the fluorescence

[2] = Dansyl-polymyxin (DsPMB) displacement assay; type: binding, Pseudomonas aeruginosa; details: 37 °C, 2.5 µM DsPMB, LPS 3 μg/mL, emission 485 nm; mean ± SD, n = 3
Method: 14. Dansyl-Polymyxin (DsPMB) Displacement Assay
Saturation determination. Dansyl-polymyxin (DsPMB) in water (1.5 mg/mL) and lyophilized lipopolysaccharides from P. aeruginosa were obtained from Merck. LPS were prepared as a 1 mg/mL stock solution in mQ water and stored at 4 °C. The fluorescence saturation of DsPMB with LPS was first determined, by titration (0.25 μM increments, up to 5 μM) of the DsPMB into a 3 μg/mL of LPS (10 mM Tris, 10 mM NaCl buffer, pH 7.4), at 37 °C. The fluorescence was recorded with a Jasco spectrofluorometer FP-8300, with the excitation at λex = 340 nm (5 nm slit width) and recorded from 420 to 650 nm. The fluorescence was recorded two minutes after each addition. Saturation was graphically determined, at a concentration of D sPMB ≈ 2.5 μM (λem = 485 nm). Each measurement was determined in triplicates.
Displacement assay. The displacement effect of the various peptides was determined by measuring the reduction of fluorescence intensity, at 37 °C. Initially, DsPMB (2.5 μM) was mixed with LPS (3 μg/mL) and let it react for 15 minutes before recording the fluorescence […]
intensity (at λem = 485 nm and λex = 340 nm). Then, the peptide was titrated (1 μM increments, up to 10 μM) into the DsPMB/LPS mixture, and the fluorescence was recorded two minutes after the compound addition. The decrease in fluorescence was interpreted as the displacement of DsPMB from the LPS due to competitive binding by the peptide.[12,13] Specific Fluorescence Enhancement
Figure S8. Fluorescence emission of dansyl-polymyxin (DsPMB) in presence of lipopolysaccharide (LPS) extracted from P. aeruginosa (3 µg/mL) in TRIS/NaCl buffer (10 mM, pH 7.4). The fluorophore was excited at 340 nm (5 nm slit width) and recorded from 420 to 650 nm. The data represent mean value from three measurement. Specific fluorescence represents the emission of DsPMB with the non-specific fluorescence (no LPS) deduced.

Structure (SMILES) | Membrane disruptive activity, fluorescein leakage from EYPG and EYPC vesicles [1] | Inner membrane depolarization (DiSC3(5)) (P. aeruginosa PAO1) | Binding to lipopolysaccharide (dansyl-PMB fluorescence displacement) [2]
CCCCCCC(=O)N[C@H](C(=O)N(CCN)CC(=O)N(CCCc1ccccc1)CC(=O)N[C@H]1CCNC(=O)[C@H](CCCCN)NC(=O)CN(CCCN)C(=O)[C@H](CCCCN)NC(=O)CNC(=O)[C@H](CCCCN)NC1=O)C(C)C [EB13] (Heptanoyl-V[Gly(N-2-aminoethyl)][N(3-phenylpropyl)Gly][Dab]KGK[Gly(N(CH2)3NH2)]K; lactam 4-C) | low membrane disruptive activity | induced a depolarization of the inner membrane like PMB2 | to a similar extent as PMB2 itself
CCCCCCCC(=O)N(CCc1ccccc1)CC(=O)N[C@@H](CCCCN)C(=O)N[C@@H](CC(N)=O)C(=O)N[C@H]1CCNC(=O)[C@H](CCCCN)NC(=O)CN(CCCN)C(=O)[C@H](CCCCN)NC(=O)CN(CCC)C(=O)[C@H](CCCCN)NC1=O [EB12] (Octanoyl-[Gly(NCH2CH2Ph)]KN[Dab]K[NPrGly]K[Gly(N(CH2)3NH2)]K; lactam 4-C) | low membrane disruptive activity | induced a depolarization of the inner membrane like PMB2 | to a similar extent as PMB2 itself
CCCCCCCC(=O)N[C@@H](CCCCN)C(=O)N(CC(=O)N[C@@H](CCCCN)C(=O)N[C@H]1CCNC(=O)[C@H](CCCCN)NC(=O)CN(C2CCCC2)C(=O)CN(CCN)C(=O)[C@H](CCCCN)NC(=O)[C@H](CC(N)=O)NC1=O)Cc1ccccc1 [EB21] (Octanoyl-K[Nphe]K[Dab]NK[Gly(N-2-aminoethyl)][Gly(N-cPent)]K; lactam 4-C) | low membrane disruptive activity | induced a depolarization of the inner membrane like PMB2 | to a similar extent as PMB2 itself
